Data: PubChem BioAssay AID1259407 (Chemical Carcinogenesis Research Information System (CCRIS), 2018)
Active and inactive are the calls of the source. No rule for the calls is given here.

Tested on: CCRIS mutagenicity, Ames/micronucleus/aberration tests
Experiment: CCRIS mutagenicity studies
[1] = Test System: AMES SALMONELLA TYPHIMURIUM, Strain/Indicator: TA98, Metabolic Activation: HAMSTER, LIVER, S-9, AROCLOR 1254 (10%), Method: PREINCUBATION
[2] = Test System: AMES SALMONELLA TYPHIMURIUM, Strain/Indicator: TA98, Metabolic Activation: NONE, Method: PREINCUBATION
[3] = Test System: AMES SALMONELLA TYPHIMURIUM, Strain/Indicator: TA100, Metabolic Activation: HAMSTER, LIVER, S-9, AROCLOR 1254 (10%), Method: PREINCUBATION
[4] = Test System: AMES SALMONELLA TYPHIMURIUM, Strain/Indicator: TA100, Metabolic Activation: NONE, Method: PREINCUBATION
[5] = Test System: AMES SALMONELLA TYPHIMURIUM, Strain/Indicator: TA1535, Metabolic Activation: HAMSTER, LIVER, S-9, AROCLOR 1254 (10%), Method: PREINCUBATION
[6] = Test System: AMES SALMONELLA TYPHIMURIUM, Strain/Indicator: TA1535, Metabolic Activation: NONE, Method: PREINCUBATION
[7] = Test System: AMES SALMONELLA TYPHIMURIUM, Strain/Indicator: TA1535, Metabolic Activation: RAT, LIVER, S-9, AROCLOR 1254 (10%), Method: PREINCUBATION
[8] = Test System: AMES SALMONELLA TYPHIMURIUM, Strain/Indicator: TA1537, Metabolic Activation: NONE, Method: PREINCUBATION
[9] = Test System: AMES SALMONELLA TYPHIMURIUM, Strain/Indicator: TA100, Metabolic Activation: NONE, Method: STANDARD PLATE

CCCCCCCCn1sccc1=O
mutagenic call (Test System: AMES SALMONELLA TYPHIMURIUM, Strain/Indicator: TA97, Metabolic Activation: HAMSTER, LIVER, S-9, AROCLOR 1254 (10%), Method: PREINCUBATION): inactive; negative
mutagenic call (Test System: AMES SALMONELLA TYPHIMURIUM, Strain/Indicator: TA97, Metabolic Activation: HAMSTER, LIVER, S-9, AROCLOR 1254 (30%), Method: PREINCUBATION): inactive; negative
mutagenic call (Test System: AMES SALMONELLA TYPHIMURIUM, Strain/Indicator: TA97, Metabolic Activation: NONE, Method: PREINCUBATION): inactive; negative
mutagenic call (Test System: AMES SALMONELLA TYPHIMURIUM, Strain/Indicator: TA97, Metabolic Activation: RAT, LIVER, S-9, AROCLOR 1254 (10 OR 30%), Method: PREINCUBATION): inactive; negative
mutagenic call [1]: inactive; negative
mutagenic call (Test System: AMES SALMONELLA TYPHIMURIUM, Strain/Indicator: TA98, Metabolic Activation: HAMSTER, LIVER, S-9, AROCLOR 1254 (30%), Method: PREINCUBATION): inactive; negative
mutagenic call [2]: inactive; negative
mutagenic call (Test System: AMES SALMONELLA TYPHIMURIUM, Strain/Indicator: TA98, Metabolic Activation: RAT, LIVER, S-9, AROCLOR 1254 (10 OR 30%), Method: PREINCUBATION): inactive; negative
mutagenic call [3]: inactive; negative
mutagenic call (Test System: AMES SALMONELLA TYPHIMURIUM, Strain/Indicator: TA100, Metabolic Activation: HAMSTER, LIVER, S-9, AROCLOR 1254 (30%), Method: PREINCUBATION): inactive; negative
mutagenic call [4]: inactive; negative
mutagenic call (Test System: AMES SALMONELLA TYPHIMURIUM, Strain/Indicator: TA100, Metabolic Activation: RAT, LIVER, S-9, AROCLOR 1254 (10 OR 30%), Method: PREINCUBATION): inactive; negative
mutagenic call [5]: inactive; negative
mutagenic call (Test System: AMES SALMONELLA TYPHIMURIUM, Strain/Indicator: TA1535, Metabolic Activation: HAMSTER, LIVER, S-9, AROCLOR 1254 (30%), Method: PREINCUBATION): inactive; negative
mutagenic call [6]: inactive; negative
mutagenic call [7]: inactive; negative
mutagenic call (Test System: AMES SALMONELLA TYPHIMURIUM, Strain/Indicator: TA1535, Metabolic Activation: RAT, LIVER, S-9, AROCLOR 1254 (30%), Method: PREINCUBATION): inactive; negative
mutagenic call (Test System: AMES SALMONELLA TYPHIMURIUM, Strain/Indicator: TA1537, Metabolic Activation: HAMSTER, LIVER, S-9, AROCLOR 1254 (30%), Method: PREINCUBATION): inactive; negative
mutagenic call [8]: inactive; negative
mutagenic call (Test System: AMES SALMONELLA TYPHIMURIUM, Strain/Indicator: TA1537, Metabolic Activation: RAT, LIVER, S-9, AROCLOR 1254 (30%), Method: PREINCUBATION): inactive; negative

CNC(=O)NOC(=O)N(C)C(=O)NC
mutagenic call (Test System: AMES SALMONELLA TYPHIMURIUM, Strain/Indicator: TA98, Metabolic Activation: NONE, Method: STANDARD PLATE): inactive; negative
mutagenic call (Test System: AMES SALMONELLA TYPHIMURIUM, Strain/Indicator: TA98, Metabolic Activation: RAT, LIVER, S-9, Method: STANDARD PLATE): inactive; negative
mutagenic call [9]: inactive; negative

O=C(OC[C@@H]1O[C@H](OC(=O)c2cc(O)c(O)c(OC(=O)c3cc(O)c(O)c(O)c3)c2)[C@@H](OC(=O)c2cc(O)c(O)c(OC(=O)c3cc(O)c(O)c(O)c3)c2)[C@H](OC(=O)c2cc(O)c(O)c(OC(=O)c3cc(O)c(O)c(O)c3)c2)[C@H]1OC(=O)c1cc(O)c(O)c(OC(=O)c2cc(O)c(O)c(O)c2)c1)c1cc(O)c(O)c(OC(=O)c2cc(O)c(O)c(O)c2)c1
mutagenic call [2]: inactive; negative
mutagenic call (Test System: AMES SALMONELLA TYPHIMURIUM, Strain/Indicator: TA98, Metabolic Activation: RAT LIVER S-9, Method: PREINCUBATION): inactive; negative
mutagenic call [4]: inactive; negative
mutagenic call (Test System: AMES SALMONELLA TYPHIMURIUM, Strain/Indicator: TA100, Metabolic Activation: RAT LIVER S-9, Method: PREINCUBATION): inactive; negative
mutagenic call (Test System: AMES SALMONELLA TYPHIMURIUM, Strain/Indicator: TA102, Metabolic Activation: RAT LIVER S-9, PHENOBARBITAL AND 5,6-BENZOFLAVONE, Method: STANDARD PLATE): inactive; negative
mutagenic call (Test System: AMES SALMONELLA TYPHIMURIUM, Strain/Indicator: TA2638, Metabolic Activation: RAT LIVER S-9, PHENOBARBITAL AND 5,6-BENZOFLAVONE, Method: STANDARD PLATE): inactive; negative
mutagenic call (Test System: E. COLI, Strain/Indicator: WP2 (PKM101), Metabolic Activation: RAT LIVER S-9, PHENOBARBITAL AND 5,6-BENZOFLAVONE, Method: STANDARD PLATE): inactive; negative
mutagenic call (Test System: E. COLI, Strain/Indicator: WP2 UVRA (PKM101), Metabolic Activation: RAT LIVER S-9, PHENOBARBITAL AND 5,6-BENZOFLAVONE, Method: STANDARD PLATE): inactive; negative

CCCCCCCCCCCCOCCO
mutagenic call (End Point: IN VITRO CHROMOSOMAL ABERRATIONS, Test System: CHO-LB CELLS, Metabolic Activation: NONE): inactive; negative
mutagenic call (End Point: IN VITRO CHROMOSOMAL ABERRATIONS, Test System: CHO-LB CELLS, Metabolic Activation: RAT, LIVER, S-9, AROCLOR 1254): inactive; negative
mutagenic call [1]: inactive; negative
mutagenic call [2]: inactive; negative
mutagenic call (Test System: AMES SALMONELLA TYPHIMURIUM, Strain/Indicator: TA98, Metabolic Activation: RAT, LIVER, S-9, AROCLOR 1254 (10%), Method: PREINCUBATION): inactive; negative
mutagenic call [3]: inactive; negative
mutagenic call [4]: inactive; negative
mutagenic call (Test System: AMES SALMONELLA TYPHIMURIUM, Strain/Indicator: TA100, Metabolic Activation: RAT, LIVER, S-9, AROCLOR 1254 (10%), Method: PREINCUBATION): inactive; negative
mutagenic call [5]: inactive; negative
mutagenic call [6]: inactive; negative
mutagenic call [7]: inactive; negative
mutagenic call (Test System: AMES SALMONELLA TYPHIMURIUM, Strain/Indicator: TA1537, Metabolic Activation: HAMSTER, LIVER, S-9, AROCLOR 1254 (10%), Method: PREINCUBATION): inactive; negative
mutagenic call [8]: inactive; negative
mutagenic call (Test System: AMES SALMONELLA TYPHIMURIUM, Strain/Indicator: TA1537, Metabolic Activation: RAT, LIVER, S-9, AROCLOR 1254 (10%), Method: PREINCUBATION): inactive; negative
mutagenic call (Test System: E. COLI, Strain/Indicator: WP2 UVRA, Metabolic Activation: NONE, Method: STANDARD PLATE): inactive; negative
mutagenic call (Test System: E. COLI, Strain/Indicator: WP2 UVRA, Metabolic Activation: S-9, Method: STANDARD PLATE): inactive; negative

Brc1cc(-c2cc(Br)c(Br)c(Br)c2)cc(Br)c1Br
mutagenic call (Test System: CHINESE HAMSTER V-79, Strain/Indicator: V-79 (HGPRT)/6-THIOGUANINE, Metabolic Activation: NONE): inactive; negative

Cc1cc(-c2cc3c(cc2F)n2c(=O)n(O)c(=O)cc2n3C2CC2)cc(C)n1
mutagenic call (Test System: AMES SALMONELLA TYPHIMURIUM, Strain/Indicator: TA102, Metabolic Activation: NONE, Method: STANDARD PLATE): active; positive

O=C[C@H](NC(=O)N(CCCl)N=O)[C@@H](O)[C@H](O)[C@H](O)CO
mutagenic call (Test System: CHINESE HAMSTER V-79, Strain/Indicator: V-79/6-THIOGUANINE, Metabolic Activation: NONE, Method: STANDARD PLATE): active; positive

CCCCCN1C2c3ccccc3-c3ccccc3C21 (configuration not stated)
mutagenic call [9]: active; positive

COc1cc(O)cc2c1cc([N+](=O)[O-])c1c(C(=O)O)cc3c(c12)OCO3
mutagenic call (Test System: AMES SALMONELLA TYPHIMURIUM, Strain/Indicator: TM677/8-AZAGUANINE, Metabolic Activation: NONE, Method: SUSPENSION/PLATE): inactive; negative
